Measurements: patent US11291719B2, “Methods and compositions for modulating Akt3” (Augusta University Research Institute, Inc., priority 2016, dated 2022)

Assays:
TC-1 tumor = TC-1 tumor growth under mJJ64A; type: in vivo, mouse; conditions: compared to untreated controls
Description: FIG. 18A is an illustration showing the experimental method and treatment schematic for TC-1 tumor experiments. FIG. 18B is a line graph showing tumor volume (cm^3) over time (days) for untreated (▴) and mJJ64A treated (♦) TC1 tumor bearing mice.

mouse iTreg cells = assay: Suppressive function of mouse iTregs in vitro; type: cell-based; conditions: iTreg to Tconv ratios 0:1 to 2:1
Description: FIGS. 15A-15J is a set of histograms showing the suppressive function of mouse iTregs in untreated and mJJ64A treated iTregs. The ratio of iTreg to Tconv cells was 0:1, 0.5:1, 1:1, and 2:1.

nTregs = assay: Proliferation and viability of activated nTregs; type: cell-based
Description: FIGS. 14A-14H is a set of histograms showing proliferation of activated nTregs treated with various concentrations of mJJ64A. FIG. […] is a bar graph showing percent proliferation of nTregs treated with various concentrations of mJJ64A. The X-axis represents treatment and the Y-axis represents percent proliferation. FIG. 13J is a bar graph showing the percent of live cells in nTregs treated with various concentrations of mJJ64A. The X-axis represents treatment and the Y-axis represents percentage of live cells.
FIGS. 16A-16L is a set of histograms showing the suppressive function of untreated and mJJ64A treated nTregs. The ratio of nTreg to Tconv cells is 0:1, 0.5:1, 1:1, 2:1, and 3:1.

N#Cc1ccc2nccc(Nc3ccc(C(=O)Nc4ccc(Nc5ccncc5)cc4)cc3)c2c1 [Compound 2]
TC-1 tumor growth (TC-1 tumor): significantly increased
suppressive function of mouse iTreg cells in vitro (mouse iTreg cells): increased
viability of nTregs (nTregs): without affecting
proliferation of nTregs (nTregs; activated nTregs): increased
